Experimental data as given in article PMC9757636, “The effectiveness of newly synthesized quaternary ammonium salts differing in chain length and type of counterion against priority human pathogens” (Scientific Reports, 2022).
Marks after values point to notes of the source that are not given here.

Tests used:
[1] = tested on: S. epidermidis ATCC 35984; assay: MIC/MBC microdilution; assay type: cell-based, Staphylococcus epidermidis; conditions: for Minimal bactericidal concentration (*MBC): 99.9% reduction; for Minimal inhibitory concentration (MIC): 24 h, 37 °C, >90% growth inhibition
Method: (§1) The minimum inhibitory concentration (MIC) of the tested monomeric QAS was performed using the microdilution method according to CLSI recommendation (M27-A3). Concentrations from 10 to 1280 µM were analyzed. Strains were incubated with or without compounds (growth control) for 24 h at 37 °C. Three independent replicates were performed. The MIC value was determined spectrophotometrically and the concentration that inhibited more than 90% of growth was determined. Optical density was measured at λ = 590 nm using a 96-well microplate reader (Bio-Rad Universal Hood II).
(§2) To determine the minimum bactericidal concentration (MBC), 10 µL of bacterial suspension incubated with monomeric QAS (MIC concentration and two times higher) was transferred to plates with LB (1% tryptone, 1% yeast extract, 0.5% NaCl) medium. […] The concentration that reduced 99.9% of microbial growth was determined as MBC[54].

[2] = tested on: S. epidermidis B374; assay: MIC/MBC microdilution; assay type: cell-based, Staphylococcus epidermidis; conditions: S. epidermidis B374; for MBC / Minimal bactericidal concentration (*MBC): 99.9% reduction; for MBC: read-out: Minimal bactericidal concentration (*MBC); for MIC / Minimal inhibitory concentration (MIC): 24 h, 37 °C, >90% growth inhibition; for MIC: read-out: Minimal inhibitory concentration (MIC)
Method: as §1, §2

[3] = tested on: S. epidermidis SI8; assay: MIC/MBC microdilution; assay type: cell-based, Staphylococcus epidermidis; conditions: for Minimal bactericidal concentration (*MBC): 99.9% reduction; for Minimal inhibitory concentration (MIC): 24 h, 37 °C, >90% growth inhibition
Method: as §1, §2

[4] = tested on: S. aureus ATCC 6538; assay: MIC/MBC microdilution; assay type: cell-based, Staphylococcus aureus; conditions: S. aureus ATCC 6538; for Minimal bactericidal concentration (*MBC): 99.9% reduction; for Minimal inhibitory concentration (MIC): 24 h, 37 °C, >90% growth inhibition
Method: as §1, §2

[5] = tested on: S. aureus MRSA R98; assay: MIC/MBC microdilution; assay type: cell-based, Staphylococcus aureus; conditions: for Minimal bactericidal concentration (*MBC): 99.9% reduction; for Minimal inhibitory concentration (MIC): 24 h, 37 °C, >90% growth inhibition
Method: as §1, §2

[6] = tested on: E. coli ATCC 11229; assay: MIC/MBC microdilution; assay type: cell-based, Escherichia coli; conditions: E. coli ATCC 11229; for Minimal bactericidal concentration (*MBC): 99.9% reduction; for Minimal inhibitory concentration (MIC): 24 h, 37 °C, >90% growth inhibition
Method: as §1, §2

[7] = tested on: E. coli H64; assay: MIC/MBC microdilution; assay type: cell-based, Escherichia coli; conditions: E. coli H64; for Minimal bactericidal concentration (*MBC): 99.9% reduction; for Minimal inhibitory concentration (MIC) / MIC: 24 h, 37 °C, >90% growth inhibition; for MIC: read-out: Minimal inhibitory concentration (MIC)
Method: as §1, §2

[8] = tested on: P. aeruginosa ATCC 27853; assay: MIC/MBC microdilution; assay type: cell-based, Pseudomonas aeruginosa; conditions: P. aeruginosa ATCC 27853; for Minimal bactericidal concentration (*MBC): 99.9% reduction; for Minimal inhibitory concentration (MIC): 24 h, 37 °C, >90% growth inhibition
Method: as §1, §2

[9] = tested on: P. aeruginosa PAO1; assay: MIC/MBC microdilution; assay type: cell-based, Pseudomonas aeruginosa; conditions: for Minimal bactericidal concentration (*MBC): 99.9% reduction; for Minimal inhibitory concentration (MIC): 24 h, 37 °C, >90% growth inhibition
Method: as §1, §2

[10] = Critical micelle concentration by conductometric measurements; assay type: physicochemical; conditions: aqueous solution, 25 °C
Method: Values of critical micelle concentrations (CMC) of cationic surfactants were measured conductrometrically. N5721 conductometer (Tel-Eko Projekt sp z o.o., Poland), equipped with N5981 probe, was calibrated using 0.1 M, 0.01 M and 0.001 M KCl aqueous solutions (conductivities equal to 1.287 S/m, 0.141 S/m and 0.0147 S/m, respectively) and used without temperature compensation mode (constant temperature 25 °C was kept during all calibration procedures and measurements). Values of specific conductivities of at least 15 different concentrations for each surfactant were measured and plotted versus concentration; the discontinuity point was used to determine critical micelle concentration.

[11] = tested on: S. epidermidis B374; assay: Adhesion to stainless steel; assay type: cell-based, Staphylococcus epidermidis; conditions: concentration not given, range given over three strains
[12] = tested on: S. epidermidis B374; assay: Adhesion to polystyrene plate; assay type: cell-based, Staphylococcus epidermidis
Method: Adhesion analysis to polystyrene surfaces was determined according to the method of Rodrigues et al. with modifications. Polystyrene 96-well plates were incubated with the respective compound concentrations (10–1280 µM) for 4 h at 37 °C with 100 rpm shaking. The plates were then washed with miliQ and inoculated with 100 µL of bacterial suspension (OD = 0.4–0.6). Plates were incubated for 6 h at 37 °C with 100 rpm shaking. Wells were rinsed and fixed for 20 min at 60 °C. They were then […] with 0.1% crystal violet solution for 5 min. The wells were washed with miliQ until the unfixed dye was completely eluted. The absorbance at λ = 590 nm was measured using a reader (Bio-Rad Universal Hood II). The positive control was a surface not treated with QAS. Three independent trials were performed.

[13] = tested on: P. aeruginosa PAO1; assay: Adhesion to glass; assay type: cell-based, Pseudomonas aeruginosa; conditions: concentration not given
[14] = tested on: Salmonella typhimurium TA100; assay: Mutagenicity (Ames test); assay type: cell-based; conditions: for Number of colonies: ± SD
Method: (§3) Two reference strains of Salmonella Typhimurium TA98 and Salmonella Typhimurium TA100, deficient in histidine synthesis, were used for this study according to the method proposed by Ames et al. with modifications. […] The mixture was mixed and poured onto a Davis minimal medium plate. The mixture without the test compound was used as a negative control. The positive control was a mixture of bacterial culture, biotin-histidine solution, and sodium azide (at a concentration of 15 μg/mL for strain TA100) or acriflavine (at a concentration of 100 μg/mL for strain TA98). Plates were incubated for 48 h at 37 °C, and then colonies were counted. The mutagenicity ratio (MR), the ratio of the number of revertants grown in the presence of the test compound to the number of spontaneously occurring revertants (negative control), was calculated. A mutagenic ratio equal to or greater than 1.7 indicates the mutagenic potential of the tested compounds. The study was performed in three times.

[15] = tested on: Salmonella typhimurium TA98; assay: Mutagenicity (Ames test); assay type: cell-based; conditions: for Number of colonies: ± SD
Method: as §3

SMILES	Minimal bactericidal concentration (*MBC) [1]	Minimal inhibitory concentration (MIC) [1]	Minimal bactericidal concentration (*MBC) [3]	Minimal inhibitory concentration (MIC) [3]	Minimal bactericidal concentration (*MBC) [4]	Minimal inhibitory concentration (MIC) [4]	Minimal bactericidal concentration (*MBC) [5]	Minimal inhibitory concentration (MIC) [5]	Minimal bactericidal concentration (*MBC) [6]	Minimal inhibitory concentration (MIC) [6]	Minimal bactericidal concentration (*MBC) [7]	Minimal inhibitory concentration (MIC) [7]	Minimal bactericidal concentration (*MBC) [8]	Minimal inhibitory concentration (MIC) [8]	Minimal bactericidal concentration (*MBC) [9]	Minimal inhibitory concentration (MIC) [9]	CMC [10] [mol/L]	Mutagenicity index ([14]; ¼ MIC)	Number of colonies ([14]; ¼ MIC)	Mutagenicity index ([14]; ½ MIC)	other results
CCCCCCCCCCCCCCCCN(C)CCC[N+](C)(C)C.COC(=O)[O-] [MeC16, [(3-hexadecyilomethyloamine)propyl] trimethylammonium methylcarbonate]	40 *40 µM	40 *40 µM	10 *10 µM	10 *10 µM	10 *10 µM	10 *10 µM	40 *40 µM	40 *40 µM	320 *320 µM	320 *320 µM	80 *80 µM	80 *80 µM	> 1280 * > 1280 µM	> 1280 * > 1280 µM	> 1280 * > 1280 µM	> 1280 * > 1280 µM	0.0012	1.09	305 ± 8.7	1.09	MBC [2]: 160 µM; MIC [2]: 80 µM; MIC [7]: 80 µM; inhibition of adhesion to stainless steel [11]: 69–83%; reduction in adhesion to polystyrene ([12]; 320 µM): 77%; reduction of adhesion to glass [13]: approximately 20%; Number of colonies ([14]; ½ MIC): 306.7 ± 11.5; Mutagenicity index ([15]; ¼ MIC): 0.39; Number of colonies ([15]; ¼ MIC): 9 ± 2; Mutagenicity index ([15]; ½ MIC): 0.19; Number of colonies ([15]; ½ MIC): 4.3 ± 3.1
CCCCCCCCCCCC(=O)N(C)CCC[N+](C)(C)C.[Br-] [BrC12]	640 *640 µM	640 *640 µM	640 *640 µM	640 *640 µM	1280 *1280 µM	1280 *1280 µM	640 *640 µM	640 *640 µM	1280 *1280 µM	1280 *1280 µM	1280 *1280 µM	1280 *1280 µM	1280 *1280 µM	1280 *1280 µM	> 1280 * > 1280 µM	> 1280 * > 1280 µM	0.0086	1.41	179.3 ± 13.9	1.15	Minimal bactericidal concentration (*MBC) [2]: 640 *640 µM; Minimal inhibitory concentration (MIC) [2]: 640 *640 µM; reduction of adhesion to glass [13]: approximately 20%; mutagenicity index (MR) ([14]; base pair substitution type mutations, MR >= 1.7 indicates mutagenic potential): < 1.7; Number of colonies ([14]; ½ MIC): 146 ± 18.5; mutagenicity index (MR) ([15]; reading frame shift type mutation, MR >= 1.7 indicates mutagenic potential): above 1.7; Mutagenicity index ([15]; ¼ MIC): 0.78; Number of colonies ([15]; ¼ MIC): 20 ± 1.4; Mutagenicity index ([15]; ½ MIC): 1.98; Number of colonies ([15]; ½ MIC): 50.5 ± 6.4
CCCCCCCCCCCCCCN(C)CCC[N+](C)(C)C.COC(=O)[O-] [MeC14, [(3-tetradecyilomethyloamine)propyl] trimethylammonium methylcarbonate]	40 *40 µM	40 *40 µM	40 *40 µM	40 *40 µM	80 *80 µM	80 *80 µM	80 *80 µM	80 *80 µM	320 *320 µM	320 *320 µM	80 *80 µM	80 *80 µM	1280 * > 1280 µM	1280 * > 1280 µM	> 1280 * > 1280 µM	> 1280 * > 1280 µM	0.0041	1.17	329.5 ± 20.5	1.10	MBC [2]: 160 µM; MIC [2]: 80 µM; MIC [7]: 80 µM; Number of colonies ([14]; ½ MIC): 310 ± 17.3; Mutagenicity index ([15]; ¼ MIC): 0.57; Number of colonies ([15]; ¼ MIC): 13 ± 2.8; Mutagenicity index ([15]; ½ MIC): 0.95; Number of colonies ([15]; ½ MIC): 21.7 ± 3.5
CCCCCCCCCCCCCC(=O)N(C)CCC[N+](C)(C)C.[Br-] [BrC14]	160 *160 µM	160 *160 µM	160 *160 µM	160 *160 µM	320 *320 µM	320 *320 µM	320 *320 µM	320 *320 µM	> 1280 * > 1280 µM	> 1280 * > 1280 µM	320 *320 µM	320 *320 µM	1280 *1280 µM	1280 *1280 µM	> 1280 * > 1280 µM	> 1280 * > 1280 µM	0.0025	1.24	158 ± 19.8	1.16	Minimal bactericidal concentration (*MBC) [2]: 640 * > 640 µM; Minimal inhibitory concentration (MIC) [2]: 640 * > 640 µM; reduced adhesion to polystyrene ([12]; 1280 µM): 82%; reduction of adhesion to glass [13]: approximately 20%; Number of colonies ([14]; ½ MIC): 147.5 ± 21.9; Mutagenicity index ([15]; ¼ MIC): 0.73; Number of colonies ([15]; ¼ MIC): 18.7 ± 6.4; Mutagenicity index ([15]; ½ MIC): 0.84
